Patent US4440740A, “α-Keto aldehydes as enhancing agents of gastro-intestinal drug absorption” (Merck & Co., Inc., priority 1982, dated 1984)

How the values were obtained:
[1] = rectal drug bioavailability in rats, aqueous microenema with α-keto aldehyde absorption enhancer, versus intravenous administration; assay type: in vivo; settings: 10 mg/kg
Method: Aqueous microenemas were administered to rats at an intrarectal depth of 2.5 cm containing 10 mg/kg target drug and 20 mg/kg α-keto aldehyde absorption enhancer. Serum samples were collected and drug bioavailability determined versus intravenous administration of the target compound. Glyoxylic acid, methylglyoxal and phenylglyoxal were tested as representative compounds in the α-keto aldehyde series. Data has been oriented for rectal delivery of two antibiotics (shown below).

[2] = rectal absorption of cyclic hexapeptide somatostatin analog with phenylglyoxal; settings: rat, in vivo, 0.4 mg, pH 5, rectal, 0.4 mg peptide, 250 μl, read-out: Percent Bioavailability
Method: (§1) Effect of Phenylglyoxal on Rectal and Duodenal Absorption of a Cyclic Hexapeptide Somatostatin Analog Specifically Cyclo-(N-Me-Ala-Tyr-D-Trp-Lys-Val-Phe)
(§2) 250 μl volume, pH 5/animal
(§3) Cyclo-(N--Me--Ala--Tyr--D-Trp--Lvs--Val--Phe)
microenema 250 μl at 2.5 cm intrarectal depth

[3] = duodenal absorption of cyclic hexapeptide somatostatin analog with phenylglyoxal; settings: rat, in vivo, 0.4 mg, pH 5, duodenal, 0.4 mg peptide, 250 μl, read-out: Percent Bioavailability
Method: as §1, §2, §3
duodenal 250 μl injection 1 cm distal to pylorus

[4] = rectal absorption of Ara-C with methylglyoxal or phenylglyoxal; settings: in vivo
Description: Effect of methylglyoxal and phenylglyoxal on rectal absorption of Ara-C, 4-Amino-1β-D-Arabinofuranosyl-2(1H)-pyrimidinone (Cytarabine), an antineoplastic, antiviral agent
Ara-C present at 1% w/v concentration

CO[C@@]1(NC(=O)Cc2cccs2)C(=O)N2C(C(=O)O)=C(COC(N)=O)CS[C@@H]21 [sodium cefoxitin, (6R-cis)-3-[[(Aminocarbonyloxy]methyl]-7-methoxy-8-oxo-7-[(2-thienylacetyl))amino]-5-thia-1-azabicyclo-[4.2.0]oct-2-ene-2-carboxylic acid]
bioavailability ([1]; rat, in vivo): 5%

gentamicin sulfate
% bioavailability, control formulations ([1]; rectal, control formulation without keto aldehyde adjuvant, mean, 3 animals): 5%

CC(C)[C@@H]1NC(=O)[C@H](CCCCN)NC(=O)[C@@H](Cc2c[nH]c3ccccc23)NC(=O)[C@H](Cc2ccc(O)cc2)NC(=O)[C@H](C)N(C)C(=O)[C@H](Cc2ccccc2)NC1=O [Cyclo-(N-Me-Ala-Tyr-D-Trp-Lys-Val-Phe)]
bioavailability ([2]; phenylglyoxal 0 mg/ml): 7% | bioavailability ([2]; phenylglyoxal 25 mg/ml): 34% | bioavailability ([3]; phenylglyoxal 0 mg/ml): 1% | bioavailability ([3]; phenylglyoxal 25 mg/ml): 20%

O=CC(=O)c1ccccc1 [Phenylglyoxal, phenyl glyoxal]
% Bioavailability of Ara-C [4]: 70.5% | 0 min-90 min (quantity head is drawing 2) of Ara-C ([4]; 90 min): 798 ± 71.0 µg·min/mL

Nc1ccn([C@@H]2O[C@H](CO)[C@@H](O)[C@@H]2O)c(=O)n1 [Ara-C, 4-Amino-1β-D-Arabinofuranosyl-2(1H)-pyrimidinone, reference compound]
bioavailability ([4]; rectal, Ara-C 1% w/v, adjuvant: none): 13.1% | AUC at 1.5 h ([4]; rectal, Ara-C 1% w/v, adjuvant: none, 0-90 min, read-out: 0 min-90 min (quantity head is drawing 2) of Ara-C (converted)): 1250 ng·h/mL
